Data taken from the supplement of paper PMC11451515.

Tested on: P12-Ichikawa
Assay: cell viability relative to DMSO control; higher = less cytotoxic
Settings: 48 h
In short: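 NOMO1, SEM and P12-Ichikawa leukemia cells spent at least four passages adapting to each medium before use. They were seeded at 500 cells/well (NOMO1, SEM) or 1000 cells/well (P12-Ichikawa) in 5 μl in 1536-well plates and pin-dosed with library compounds in DMSO at 11 threefold steps from 47 μM down to 0.79 nM. After 48 h at 37°C, CellTiter-Glo One luminescence was read. Viability is reported as a percentage of the DMSO wells on each plate, with cell-free wells as background.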

[1] = HPLM + 10% dialyzed FBS, 0.000781 µM
[2] = HPLM + 10% dialyzed FBS, 0.00234 µM
[3] = HPLM + 10% dialyzed FBS, 0.00702 µM
[4] = HPLM + 10% dialyzed FBS, 0.0211 µM
[5] = HPLM + 10% dialyzed FBS, 0.0632 µM
[6] = HPLM + 10% dialyzed FBS, 0.19 µM
[7] = HPLM + 10% dialyzed FBS, 0.569 µM
[8] = HPLM + 10% dialyzed FBS, 1.71 µM
[9] = HPLM + 10% dialyzed FBS, 5.12 µM
[10] = HPLM + 10% dialyzed FBS, 15.4 µM
[11] = HPLM + 10% dialyzed FBS, 46.1 µM
[12] = RPMI 5 mM glucose + 10% FBS, 0.000781 µM
[13] = RPMI 5 mM glucose + 10% FBS, 0.00234 µM
[14] = RPMI 5 mM glucose + 10% FBS, 0.00702 µM
[15] = RPMI 5 mM glucose + 10% FBS, 0.0211 µM
[16] = RPMI 5 mM glucose + 10% FBS, 0.0632 µM
[17] = RPMI 5 mM glucose + 10% FBS, 0.19 µM
[18] = RPMI 5 mM glucose + 10% FBS, 0.569 µM
[19] = RPMI 5 mM glucose + 10% FBS, 1.71 µM
[20] = RPMI 5 mM glucose + 10% FBS, 5.12 µM
[21] = RPMI 5 mM glucose + 10% FBS, 15.4 µM
[22] = RPMI 5 mM glucose + 10% FBS, 46.1 µM
[23] = RPMI 5 mM glucose + 10% dialyzed FBS, 0.000781 µM
[24] = RPMI 5 mM glucose + 10% dialyzed FBS, 0.00234 µM
[25] = RPMI 5 mM glucose + 10% dialyzed FBS, 0.00702 µM
[26] = RPMI 5 mM glucose + 10% dialyzed FBS, 0.0211 µM
[27] = RPMI 5 mM glucose + 10% dialyzed FBS, 0.0632 µM
[28] = RPMI 5 mM glucose + 10% dialyzed FBS, 0.19 µM
[29] = RPMI 5 mM glucose + 10% dialyzed FBS, 0.569 µM
[30] = RPMI 5 mM glucose + 10% dialyzed FBS, 1.71 µM
[31] = RPMI 5 mM glucose + 10% dialyzed FBS, 5.12 µM
[32] = RPMI 5 mM glucose + 10% dialyzed FBS, 15.4 µM
[33] = RPMI 5 mM glucose + 10% dialyzed FBS, 46.1 µM

| SMILES | cell viability [1] [%] | cell viability [2] [%] | cell viability [3] [%] | cell viability [4] [%] | cell viability [5] [%] | cell viability [6] [%] | cell viability [7] [%] | cell viability [8] [%] | cell viability [9] [%] | cell viability [10] [%] | cell viability [11] [%] | cell viability [12] [%] | cell viability [13] [%] | cell viability [14] [%] | cell viability [15] [%] | cell viability [16] [%] | cell viability [17] [%] | cell viability [18] [%] | cell viability [19] [%] | cell viability [20] [%] | cell viability [21] [%] | cell viability [22] [%] | cell viability [23] [%] | cell viability [24] [%] | cell viability [25] [%] | cell viability [26] [%] | cell viability [27] [%] | cell viability [28] [%] | cell viability [29] [%] | cell viability [30] [%] | cell viability [31] [%] | cell viability [32] [%] | cell viability [33] [%] |
| --- | --- | --- | --- | --- | --- | --- | --- | --- | --- | --- | --- | --- | --- | --- | --- | --- | --- | --- | --- | --- | --- | --- | --- | --- | --- | --- | --- | --- | --- | --- | --- | --- | --- |
| Nc1ncnc2ccccc12 | 87.8 | 92.3 | 95.5 | 9.38 | 106 | 100 | 106 | 105 | 105 | 100 | 111 | 84.2 | 90.7 | 88.3 | 13.7 | 104 | 102 | 105 | 97.2 | 97.8 | 104 | 104 | 86.2 | 91.8 | 93.5 | 28.2 | 102 | 102 | 100 | 92.3 | 103 | 99.1 | 94 |
| Cc1cc(Nc2cc(CN3CCOCC3)c3nc(C)c(Cc4ccc(Cl)cc4F)n3n2)[nH]n1 | 112 | 105 | 119 | 116 | 109 | 111 | 114 | 104 | 96.5 | 34.8 | 78.4 | 120 | 114 | 117 | 117 | 110 | 116 | 96.2 | 109 | 86.6 | 48.1 | 56.5 | 106 | 101 | 115 | 114 | 104 | 111 | 99.7 | 104 | 95.8 | 51.5 | 62.7 |
| C/C(O)=C(\C#N)C(=O)Nc1cc(Br)ccc1Br | 105 | 110 | 114 | 109 | 109 | 109 | 108 | 105 | 99.6 | 97.9 | 95 | 100 | 109 | 104 | 108 | 105 | 107 | 100 | 101 | 104 | 96.4 | 86.5 | 106 | 113 | 114 | 109 | 106 | 104 | 103 | 116 | 96.3 | 94.5 | 94.5 |
| CC/1=C(/C(CC(=O)N1)C2=CC=C(C=C2)C(F)(F)F)C(=O)NC3=C(F)C=C4[NH]N=CC4=C3 (stereo unspecified) | 93.5 | 103 | 101 | 102 | 101 | 99.1 | 100 | 97.3 | 98.4 | 58.6 | 44.6 | 96.2 | 104 | 102 | 100 | 108 | 99.9 | 104 | 98.3 | 98.3 | 66.9 | 62 | 95.3 | 99.8 | 99.9 | 101 | 104 | 105 | 107 | 96.9 | 107 | 66.5 | 47.6 |
| C=CC(=O)Nc1cccc(Nc2nc(NC3CCC(N(C)C)CC3)nc3c2ncn3C(C)C)c1 (stereo unspecified) | 107 | 115 | 112 | 106 | 112 | 113 | 105 | 85.3 | 36.7 | 11.1 | 5.85 | 115 | 114 | 114 | 112 | 115 | 112 | 107 | 94.8 | 28.6 | 8.46 | 5.44 | 108 | 110 | 108 | 116 | 122 | 119 | 123 | 114 | 35.5 | 11 | 6.55 |
| CCOC(=O)c1cncn1[C@H](C)c1ccccc1 | 122 | 123 | 115 | 127 | 128 | 121 | 125 | 121 | 112 | 109 | 106 | 125 | 129 | 122 | 136 | 122 | 116 | 121 | 113 | 115 | 114 | 120 | 121 | 126 | 119 | 124 | 128 | 122 | 126 | 121 | 115 | 113 | 111 |
| COC1=C2C[C@@H](C)C[C@H](OC)[C@H](O)[C@@H](C)/C=C(\C)[C@H](OC(N)=O)[C@@H](OC)/C=C/C=C(\C)C(=O)NC(=CC1=O)C2=O | 114 | 106 | 116 | 109 | 107 | 113 | 98.6 | 104 | 77.4 | 48.4 | 38.6 | 106 | 109 | 108 | 112 | 108 | 108 | 102 | 90.8 | 80.5 | 51.5 | 27.2 | 116 | 117 | 114 | 111 | 108 | 111 | 108 | 94.4 | 72.2 | 34.2 | 28 |
